The record followed here is ChEMBL document CHEMBL3039007, “Structure-based identification of OATP1B1/3 inhibitors” (Mol Pharmacol, 2013).

The target of data set [1] is T1, Solute carrier organic anion transporter family member 1B1 (Homo sapiens, UniProt Q9Y6L6).
T1 sequence (Q9Y6L6 whole entry): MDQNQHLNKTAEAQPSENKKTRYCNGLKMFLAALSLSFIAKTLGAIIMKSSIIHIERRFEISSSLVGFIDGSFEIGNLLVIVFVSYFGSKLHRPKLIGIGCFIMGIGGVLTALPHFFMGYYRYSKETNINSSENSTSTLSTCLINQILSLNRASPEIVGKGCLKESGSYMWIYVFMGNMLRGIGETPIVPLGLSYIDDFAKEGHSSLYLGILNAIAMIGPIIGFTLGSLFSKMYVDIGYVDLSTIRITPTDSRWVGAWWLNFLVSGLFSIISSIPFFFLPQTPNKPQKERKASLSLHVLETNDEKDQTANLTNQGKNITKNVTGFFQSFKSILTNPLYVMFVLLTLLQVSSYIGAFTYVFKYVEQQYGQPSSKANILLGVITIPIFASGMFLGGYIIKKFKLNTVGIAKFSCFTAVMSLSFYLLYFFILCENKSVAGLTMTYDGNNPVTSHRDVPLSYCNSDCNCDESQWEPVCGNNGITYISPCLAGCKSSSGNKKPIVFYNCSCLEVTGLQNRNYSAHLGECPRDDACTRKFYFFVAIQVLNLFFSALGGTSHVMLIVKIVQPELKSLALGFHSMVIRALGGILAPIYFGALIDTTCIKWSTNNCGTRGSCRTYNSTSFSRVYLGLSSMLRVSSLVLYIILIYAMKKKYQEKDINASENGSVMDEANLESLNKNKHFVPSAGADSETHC
The conditions noted are these: chinese hamster, cho, 10 µM.

Data set [2] has as its target T2, Solute carrier organic anion transporter family member 1B3 (Homo sapiens, UniProt Q9NPD5).
T2 sequence (Q9NPD5 whole entry): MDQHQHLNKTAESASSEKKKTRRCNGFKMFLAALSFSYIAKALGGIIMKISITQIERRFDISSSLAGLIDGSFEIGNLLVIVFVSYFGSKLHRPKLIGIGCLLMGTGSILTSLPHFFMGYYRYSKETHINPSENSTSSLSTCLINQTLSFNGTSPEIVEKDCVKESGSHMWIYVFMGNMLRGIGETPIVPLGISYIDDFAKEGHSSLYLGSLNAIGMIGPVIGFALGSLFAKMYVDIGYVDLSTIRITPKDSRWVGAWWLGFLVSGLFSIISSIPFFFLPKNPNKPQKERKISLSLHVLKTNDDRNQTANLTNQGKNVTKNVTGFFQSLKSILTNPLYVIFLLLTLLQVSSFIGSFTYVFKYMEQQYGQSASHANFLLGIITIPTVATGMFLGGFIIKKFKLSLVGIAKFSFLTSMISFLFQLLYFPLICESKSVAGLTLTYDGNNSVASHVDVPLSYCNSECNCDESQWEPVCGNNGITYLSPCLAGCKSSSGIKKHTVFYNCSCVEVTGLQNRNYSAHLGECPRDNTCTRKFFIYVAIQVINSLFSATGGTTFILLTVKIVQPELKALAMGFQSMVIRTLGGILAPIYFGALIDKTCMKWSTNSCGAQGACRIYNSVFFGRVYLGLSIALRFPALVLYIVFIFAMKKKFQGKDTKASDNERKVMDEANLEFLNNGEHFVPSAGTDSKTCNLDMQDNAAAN
The conditions noted are these: chinese hamster, cho, 10 µM.

One may read the residual activity as the signal under treatment as a percentage of the control signal. With `COc1ccccc1OCC(O)CN1CCN(CC(=O)Nc2c(C)cccc2C)CC1` (stereo not given) [RANOLAZINE], the figures for the residual activity in data set [1] and in data set [2] were 70.75% and 83.1%, respectively.

Consider `O=C(NC(Cc1cc(=O)[nH]c2ccccc12)C(=O)O)c1ccc(Cl)cc1` (stereo not given) [REBAMIPIDE], for which the residual activity in data set [1] is reported as 97.98%; in data set [2], 109.2%.

Consider `CC(=O)Oc1cccc(O)c1` [RESORCINOL MONOACETATE], for which the residual activity in data set [1] turned out to be 102.7%; in data set [2], 68.79%.

With `Oc1cccc(O)c1` [RESORCINOL], the residual activity is recorded as 89.71% in data set [1] and 104.2% in data set [2].

In the case of `Oc1ccc(/C=C/c2cc(O)cc(O)c2)cc1` [RESVERATROL], the residual activity was 157.6% in data set [1] and 116.7% in data set [2].

On to `CC1=C(/C=C/C(C)=C/C=C/C(C)=C/CO)C(C)(C)CCC1` [RETINOL], for which the residual activity in data set [1] amounted to 18.99%; in data set [2], 31.96%.

As for `COc1ccc(-c2coc3c(O)c(OC)ccc3c2=O)cc1` [RETUSIN 7-METHYL ETHER], the results for the residual activity in data set [1] and in data set [2] were 126.8% and 107.3%, respectively.

For the compound `C=C(C)/C=C1/C=CC(=O)C(C)=C1` [RETUSOQUINONE], the residual activity in data set [1] was determined as 96.97%; in data set [2], 92.24%.

In the case of `COc1cc(O)c2c(=O)c(O)c(-c3ccc(O)c(O)c3)oc2c1` [RHAMNETIN], the residual activity in data set [1] stood at 90.81%; in data set [2], 99.02%.

With `COc1ccc(/C=C/c2cc(O)cc(O[C@@H]3O[C@H](CO)[C@@H](O)[C@H](O)[C@H]3O)c2)cc1O` [RHAPONTIN], the residual activity in data set [1] amounted to 166.2%; in data set [2] it was 100.6%.

Consider `CNc1ccccc1C(=O)N1CCc2c([nH]c3ccccc23)C1=O` [RHETSININE], for which the values for the residual activity in data set [1] and in data set [2] were 102% and 98.18%, respectively.

Take `COC1=C(O)C(=O)c2c(cc3oc(C(C)=O)c(O)c3c2O)C1=O` [RHODOCLADONIC ACID]: the residual activity in data set [1] was found to be 93.89%; in data set [2], 96.54%.

`CCC(C)C(=O)c1c(O)c(C)c2oc3c(C)c(O)c(C(=O)C(C)CC)c(O)c3c2c1O` (stereo not given) [RHODOMYRTOXIN B]: the residual activity worked out at 8.078% in data set [1] and 37.47% in data set [2].

Consider `Cc1c(O)c(C(=O)CC(C)C)c2oc3c(C(=O)CC(C)C)c(O)c(C)c(O)c3c2c1O` [RHODOMYRTOXIN], for which the residual activity in data set [1] amounted to 31.12%; in data set [2] it was 66.23%.

Take `C[C@@H]1O[C@@H](O[C@H]2[C@H](Oc3cc(O)c4c(=O)cc(-c5ccc(O)cc5)oc4c3)O[C@H](CO)[C@@H](O)[C@@H]2O)[C@H](O)[C@H](O)[C@H]1O` [RHOIFOLIN]: the results for the residual activity in data set [1] and in data set [2] were 101.7% and 203.1%, respectively.

For `NC(=O)c1ncn([C@@H]2O[C@H](CO)[C@@H](O)[C@H]2O)n1` [RIBAVIRIN], the residual activity in data set [1] is reported as 112.3%; in data set [2], 87.39%.

Turning to `OC[C@@H](O)[C@@H](O)[C@@H](O)CO` [RIBITOL], the residual activity in data set [1] came to 81.13%; in data set [2], 94.42%.

Consider `CO[C@H]1/C=C/O[C@@]2(C)Oc3c(C)c(O)c4c(O)c(c(/C=N/N5CCN(C)CC5)c(O)c4c3C2=O)NC(=O)/C(C)=C\C=C\[C@H](C)[C@H](O)[C@@H](C)[C@@H](O)[C@@H](C)[C@H](OC(C)=O)[C@@H]1C` [RIFAMPIN], for which the residual activity in data set [1] is 33.63%; in data set [2] it was 22.01%.

With `CO[C@H]1/C=C/O[C@@]2(C)Oc3c(C)c(O)c4c(O)c(c5c(nc6cc(C)ccn65)c4c3C2=O)NC(=O)/C(C)=C\C=C\[C@H](C)[C@H](O)[C@@H](C)[C@@H](O)[C@@H](C)[C@H](OC(C)=O)[C@@H]1C` [RIFAXIMIN], the residual activity in data set [1] amounted to 63.34%; in data set [2], 81.07%.

With `Nc1nc2ccc(OC(F)(F)F)cc2s1` [RILUZOLE], the residual activity in data set [1] worked out at 95.81%; in data set [2], 124.8%.

`Cc1nc2sccn2c(=O)c1CCN1CCC(=C(c2ccc(F)cc2)c2ccc(F)cc2)CC1` [RITANSERIN]: the residual activity in data set [1] is given as 96.72%; in data set [2] it was 101.7%.

Take `CC(NCCc1ccc(O)cc1)C(O)c1ccc(O)cc1.Cl` (stereo not given) [RITODRINE HYDROCHLORIDE]: the values for the residual activity in data set [1] and in data set [2] were 125.6% and 112.7%, respectively.

Turning to `COc1ccc(-c2c(OC)c3c(OC)c4c(cc3oc2=O)OC(C)(C)C=C4)cc1` [ROBUSTIC ACID METHYL ETHER], the figures for the residual activity in data set [1] and in data set [2] were 184.1% and 140.2%, respectively.

Regarding `COc1ccc(-c2c(O)c3c(OC)c4c(cc3oc2=O)OC(C)(C)C=C4)cc1` [ROBUSTIC ACID], the residual activity was 96.44% in data set [1] and 74.37% in data set [2].

With `CC1(C)C=Cc2c(cc3occ(-c4ccc5c(c4)OCO5)c(=O)c3c2O)O1` [ROBUSTONE], the residual activity in data set [1] is given as 102.3%; in data set [2], 96.96%.

Turning to `CS(=O)(=O)c1ccc(C2=C(c3ccccc3)C(=O)OC2)cc1` [ROFECOXIB], the residual activity in data set [1] was found to be 134.4%; in data set [2], 84.03%.

For the compound `Cn1c([N+](=O)[O-])cnc1COC(N)=O` [RONIDAZOLE], the residual activity in data set [1] came to 103.6%; in data set [2], 88.05%.

`O=C(/C=C/c1ccc(O)c(O)c1)O[C@H](Cc1ccc(O)c(O)c1)C(=O)O` [ROSMARINIC ACID]: the residual activity in data set [1] turned out to be 103.9%; in data set [2], 102.5%.

Take `C=C(C)[C@H]1Cc2c(ccc3c2O[C@@H]2COc4cc(OC)c(OC)cc4[C@@H]2C3=O)O1` [ROTENONE]: the residual activity came out at 23.22% in data set [1] and 43.86% in data set [2].

Take `COc1cc2c(cc1OC)[C@@H]1C(=O)c3ccc(OC)c(CC=C(C)C)c3O[C@@H]1CO2` [ROTENONIC ACID, METHYL ETHER]: the values for the residual activity in data set [1] and in data set [2] were 77.03% and 108.1%, respectively.

Regarding `COc1cc2c(cc1OC)[C@@H]1C(=O)c3ccc(O)c(CC=C(C)C)c3O[C@@H]1CO2` [ROTENONIC ACID], the residual activity in data set [1] was 53.2%; in data set [2] it was 99.21%.

For the compound `O=[N+]([O-])c1cc([As](=O)(O)O)ccc1O` [ROXARSONE], the residual activity was 82.84% in data set [1] and 90.61% in data set [2].

As for `CC[C@H]1OC(=O)[C@H](C)[C@@H](O[C@H]2C[C@@](C)(OC)[C@@H](O)[C@H](C)O2)[C@H](C)[C@@H](O[C@@H]2O[C@H](C)C[C@H](N(C)C)[C@H]2O)[C@](C)(O)C[C@@H](C)/C(=N\OCOCCOC)[C@H](C)[C@@H](O)[C@]1(C)O` [ROXITHROMYCIN], the values for the residual activity in data set [1] and in data set [2] were 91.33% and 77.16%, respectively.

On to `CC[C@@]1(O)C[C@H](O)c2c(cc3c(c2O)C(=O)c2c(O)ccc(O)c2C3=O)[C@H]1C(=O)OC` [RUTILANTINONE], for which the residual activity in data set [1] was 74.91%; in data set [2] it was 99.74%.

Take `CCCCSP(=O)(SCCCC)SCCCC` [S,S,S,-TRIBUTYLPHOSPHOROTRITHIOATE]: the results for the residual activity in data set [1] and in data set [2] were 125.7% and 111.8%, respectively.

As to `CC(=O)O.CSC(=N)NCCC[C@H](N)C(=O)O` [S-METHYL-L-THIOCITRULLINE ACETATE], the residual activity was found to be 104.5% in data set [1] and 107% in data set [2].

As to `O=C1NS(=O)(=O)c2ccccc21` [SACCHARIN], the residual activity in data set [1] turned out to be 112.4%; in data set [2] it was 110.9%.

In the case of `C=CCc1ccc2c(c1)OCO2` [SAFROLE], the residual activity in data set [1] came out at 83.42%; in data set [2], 100.9%.

With `OCC(O)Cc1ccc2c(c1)OCO2` (stereo not given) [SAFROLGLYCOL], the residual activity in data set [1] is given as 82.94%; in data set [2], 83.74%.

As to `OCc1ccccc1O[C@@H]1O[C@H](CO)[C@@H](O)[C@H](O)[C@H]1O` [SALICIN], the residual activity in data set [1] amounted to 85.64%; in data set [2], 97.32%.
